Drawing on US20260356851A1, “TRICYCLIC COMPOUNDS AND USES THEREOF” (HUTCHMED LIMITED, priority 2023, published 2026), this text covers IC50 for 14 compounds.

Holding throughout (assay type): cell-based
In assay [1] the target is T1, pERK1/2 (Thr202/Tyr204), PANC-1 (KRAS G121D) (Homo sapiens, UniProt P01116, G12D).
T1 construct: pERK1/2 HTRF read-out
The assay can be described thus: Assay of intracellular pERK1/2 (Thr202/Tyr204) phosphorylation in PANC-1 cells (KRAS G12D). The following applies: pERK1/2, 2 days, read-out: PANC-1 (KRAS G12D) IC50. The gist of the method:
(§1)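 HTRF detection of Thr202/Tyr204-phosphorylated ERK1/2 (665/615 nm ratio) in lysates from cells treated 2 days with serially 3-fold diluted compound.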

In assay [2] the target is T2, pERK1/2 (Thr202/Tyr204), NCI-1H358 (KRAS G12C) (Homo sapiens, UniProt P01116, G12C).
T2 construct: pERK1/2 HTRF read-out
The assay can be described thus: Assay of intracellular pERK1/2 (Thr202/Tyr204) phosphorylation in NCI-H358 cells (KRAS G12C). The following applies: pERK1/2, 2 days, read-out: NCI-H358 (KRAS G12C) IC50. The gist of the method: as §1

Assay [3] deals with T3, pERK1/2 (Thr202/Tyr204), NCI-1H441 (KRAS G12V) (Homo sapiens, UniProt P01116, G12V).
T3 construct: pERK1/2 HTRF read-out
The assay can be described thus: Assay of intracellular pERK1/2 (Thr202/Tyr204) phosphorylation in NCI-H441 cells (KRAS G12V). The following applies: pERK1/2, 2 days, read-out: NCI-H441 (KRAS G12V) IC50. In a few lines:
as §1

T1 sequence (P01116 1-188 isoform P01116-2 G12D): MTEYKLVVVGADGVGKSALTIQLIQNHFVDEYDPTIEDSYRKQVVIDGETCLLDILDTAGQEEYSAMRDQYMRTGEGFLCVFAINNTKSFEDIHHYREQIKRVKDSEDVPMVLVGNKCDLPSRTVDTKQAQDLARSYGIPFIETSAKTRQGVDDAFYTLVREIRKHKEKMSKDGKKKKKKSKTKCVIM
T3 sequence (P01116 1-188 isoform P01116-2 G12V): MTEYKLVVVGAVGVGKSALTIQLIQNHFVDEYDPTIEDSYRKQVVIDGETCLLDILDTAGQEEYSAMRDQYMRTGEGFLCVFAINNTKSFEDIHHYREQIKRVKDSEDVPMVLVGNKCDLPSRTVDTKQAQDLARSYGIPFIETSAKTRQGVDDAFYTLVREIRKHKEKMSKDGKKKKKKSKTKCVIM
T2 sequence (P01116 1-188 isoform P01116-2 G12C): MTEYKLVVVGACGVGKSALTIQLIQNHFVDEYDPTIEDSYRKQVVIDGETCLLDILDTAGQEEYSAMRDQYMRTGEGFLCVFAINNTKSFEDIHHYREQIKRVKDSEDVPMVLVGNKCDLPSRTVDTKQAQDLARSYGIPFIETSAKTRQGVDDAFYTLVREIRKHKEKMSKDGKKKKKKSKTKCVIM

The term IC50 denotes the point on the concentration scale where inhibition reaches its midpoint. On to `Cc1c(F)c(N)cc(-c2nc3c4c(nc(OC[C@@]56CCCN5C[C@H](F)C6)nc4c2F)N(C(C)c2cccnc2N)[C@@H](C)CO3)c1C(F)(F)F` (single isomer, unassigned) [Compound 250, 3-((R or S)-1-((S)-5-(5-amino-4-fluoro-3-methyl-2-(trifluoromethyl)phenyl)-4-fluoro-2-(((2R,7aS)-2-fluorotetrahydro-1H-pyrrolizin-7a(5H)-yl)methoxy)-9-methyl-8,9-dihydro-10H-7-oxa-1,3,6,10-tetraazacyclohepta[de]naphthalen-10-yl)ethyl)pyridin-2-amine], for which the IC50 in assay [1] worked out at 0.4 nM; in assay [2], 0.1 nM; in assay [3], 0.3 nM.

For `Cc1ccc(C(C)N2CCOc3nc(-c4cc(N)c(F)c(C)c4C(F)(F)F)c(F)c4nc(OC[C@@]56CCCN5C[C@H](F)C6)nc2c34)c(N)n1` (single isomer, unassigned) [Compound 251, 3-((R or S)-1-(5-(5-amino-4-fluoro-3-methyl-2-(trifluoromethyl)phenyl)-4-fluoro-2-(((2R,7aS)-2-fluorotetrahydro-1H-pyrrolizin-7a(5H)-yl)methoxy)-8,9-dihydro-10H-7-oxa-1,3,6,10-tetraazacyclohepta[de]naphthalen-10-yl)ethyl)-6-methylpyridin-2-amine], the IC50 in assay [1], in assay [2] and in assay [3] was more than 100 nM throughout.

For the compound `Cc1c(F)c(N)cc(-c2nc3c4c(nc(OC[C@@]56CCCN5C[C@H](F)C6)nc4c2F)N(C(C)c2cccnc2N)C[C@H](C)O3)c1C(F)(F)F` (single isomer, unassigned) [Compound 253, 3-((R or S)-1-((S)-5-(5-amino-4-fluoro-3-methyl-2-(trifluoromethyl)phenyl)-4-fluoro-2-(((2R,7aS)-2-fluorotetrahydro-1H-pyrrolizin-7a(5H)-yl)methoxy)-8-methyl-8,9-dihydro-10H-7-oxa-1,3,6,10-tetraazacyclohepta[de]naphthalen-10-yl)ethyl)pyridin-2-amine], the concentration for half-maximal inhibition (IC50) in assay [1], in assay [2] and in assay [3] was more than 100 nM throughout.

For the compound `Cc1c(F)c(N)cc(-c2nc3c4c(nc(OC[C@@]56CCCN5C[C@H](F)C6)nc4c2F)N(C(C)c2cccnc2N)C[C@H](C)O3)c1C(F)(F)F` (single isomer, unassigned) [Compound 254, 3-((R or S)-1-((S)-5-(5-amino-4-fluoro-3-methyl-2-(trifluoromethyl)phenyl)-4-fluoro-2-(((2R,7aS)-2-fluorotetrahydro-1H-pyrrolizin-7a(5H)-yl)methoxy)-8-methyl-8,9-dihydro-10H-7-oxa-1,3,6,10-tetraazacyclohepta[de]naphthalen-10-yl)ethyl)pyridin-2-amine], the IC50 was 43 nM in assay [1], 2 nM in assay [2] and 10 nM in assay [3].

For `Cc1c(F)c(N)cc(-c2nc3c4c(nc(OC[C@@]56CCCN5C[C@H](F)C6)nc4c2F)N(C(C)c2cccnc2N)[C@H](C)CO3)c1C(F)(F)F` (single isomer, unassigned) [Compound 255, 3-((R or S)-1-((R)-5-(5-amino-4-fluoro-3-methyl-2-(trifluoromethyl)phenyl)-4-fluoro-2-(((2R,7aS)-2-fluorotetrahydro-1H-pyrrolizin-7a(5H)-yl)methoxy)-9-methyl-8,9-dihydro-10H-7-oxa-1,3,6,10-tetraazacyclohepta[de]naphthalen-10-yl)ethyl)pyridin-2-amine], the IC50 in assay [1] was more than 100 nM; in assay [2] it was 37 nM; in assay [3] it was more than 100 nM.

With `Cc1c(F)c(N)cc(-c2nc3c4c(nc(OC[C@@]56CCCN5C[C@H](F)C6)nc4c2F)N(C(C)c2cccnc2N)[C@H](C)CO3)c1C(F)(F)F` (single isomer, unassigned) [Compound 256, 3-((R or S)-1-((R)-5-(5-amino-4-fluoro-3-methyl-2-(trifluoromethyl)phenyl)-4-fluoro-2-(((2R,7aS)-2-fluorotetrahydro-1H-pyrrolizin-7a(5H)-yl)methoxy)-9-methyl-8,9-dihydro-10H-7-oxa-1,3,6,10-tetraazacyclohepta[de]naphthalen-10-yl)ethyl)pyridin-2-amine], the IC50 in assay [1], in assay [2] and in assay [3] was more than 100 nM in each case.

With `Cc1ccnc(N)c1C(C)N1CCOc2nc(-c3cc(N)c(F)c(C)c3C(F)(F)F)c(F)c3nc(OC[C@@]45CCCN4C[C@H](F)C5)nc1c23` (single isomer, unassigned) [Compound 257, 3-((R or S)-1-(5-(5-amino-4-fluoro-3-methyl-2-(trifluoromethyl)phenyl)-4-fluoro-2-(((2R,7aS)-2-fluorotetrahydro-1H-pyrrolizin-7a(5H)-yl)methoxy)-8,9-dihydro-10H-7-oxa-1,3,6,10-tetraazacyclohepta[de]naphthalen-10-yl)ethyl)-4-methylpyridin-2-amine], the IC50 in assay [1] worked out at 51 nM; in assay [2], 2 nM; in assay [3] it was 6 nM.

Take `Cc1ccnc(N)c1C(C)N1CCOc2nc(-c3cc(N)c(F)c(C)c3C(F)(F)F)c(F)c3nc(OC[C@@]45CCCN4C[C@H](F)C5)nc1c23` (single isomer, unassigned) [Compound 258, 3-((R or S)-1-(5-(5-amino-4-fluoro-3-methyl-2-(trifluoromethyl)phenyl)-4-fluoro-2-(((2R,7aS)-2-fluorotetrahydro-1H-pyrrolizin-7a(5H)-yl)methoxy)-8,9-dihydro-10H-7-oxa-1,3,6,10-tetraazacyclohepta[de]naphthalen-10-yl)ethyl)-4-methylpyridin-2-amine]: the IC50 in assay [1], in assay [2] and in assay [3] was more than 100 nM each time.

Turning to `Cc1c(F)c(N)cc(-c2nc3c4c(nc(OC[C@@]56CCCN5C[C@H](F)C6)nc4c2F)N([C@H](C)c2cn(C)nc2N)CCO3)c1C(F)(F)F` (single isomer, unassigned) [Compound 260, 4-((R or S)-1-(5-(5-amino-4-fluoro-3-methyl-2-(trifluoromethyl)phenyl)-4-fluoro-2-(((2R,7aS)-2-fluorotetrahydro-1H-pyrrolizin-7a(5H)-yl)methoxy)-8,9-dihydro-10H-7-oxa-1,3,6,10-tetraazacyclohepta[de]naphthalen-10-yl)ethyl)-1-methyl-1H-pyrazol-3-amine], the IC50 in assay [1] was more than 100 nM; in assay [2] it was 30 nM; in assay [3] it was 65 nM.

`Cc1c(F)c(N)cc(-c2nc3c4c(nc(OC[C@@]56CCCN5C[C@H](F)C6)nc4c2F)N(C(C)c2cn(C)nc2N)CCO3)c1C(F)(F)F` (single isomer, unassigned) [Compound 261, 4-((R or S)-1-(5-(5-amino-4-fluoro-3-methyl-2-(trifluoromethyl)phenyl)-4-fluoro-2-(((2R,7aS)-2-fluorotetrahydro-1H-pyrrolizin-7a(5H)-yl)methoxy)-8,9-dihydro-10H-7-oxa-1,3,6,10-tetraazacyclohepta[de]naphthalen-10-yl)ethyl)-1-methyl-1H-pyrazol-3-amine]: the IC50 in assay [1], in assay [2] and in assay [3] was more than 100 nM in each case.

Consider `Cc1c(F)c(N)cc(-c2nc3c4c(nc(OC[C@@]56CCCN5C[C@H](F)C6)nc4c2F)N(C(C)c2cccnc2N)[C@@H](C)CO3)c1C(F)(F)F` (single isomer, unassigned) [Compound 263, 3-((R or S)-1-((S)-5-(5-amino-4-fluoro-3-methyl-2-(trifluoromethyl)phenyl)-4-fluoro-2-(((2R,7aS)-2-fluorotetrahydro-1H-pyrrolizin-7a(5H)-yl)methoxy)-9-methyl-8,9-dihydro-10H-7-oxa-1,3,6,10-tetraazacyclohepta[de]naphthalen-10-yl)ethyl)pyridin-2-amine], for which the IC50 in assay [1] came out at 35 nM; in assay [2] it was 14 nM; in assay [3], 40 nM.

Take `CNc1ncccc1C(C)N1CCOc2nc(-c3cc(N)c(F)c(C)c3C(F)(F)F)c(F)c3nc(OC[C@@]45CCCN4C[C@H](F)C5)nc1c23` (single isomer, unassigned) [Compound 264, 3-((R or S)-1-(5-(5-amino-4-fluoro-3-methyl-2-(trifluoromethyl)phenyl)-4-fluoro-2-(((2R,7aS)-2-fluorotetrahydro-1H-pyrrolizin-7a(5H)-yl)methoxy)-8,9-dihydro-10H-7-oxa-1,3,6,10-tetraazacyclohepta[de]naphthalen-10-yl)ethyl)-N-methylpyridin-2-amine]: the IC50 in assay [1] is more than 100 nM; in assay [2] it was 93 nM; in assay [3] it was more than 100 nM.

With `CNc1ncccc1C(C)N1CCOc2nc(-c3cc(N)c(F)c(C)c3C(F)(F)F)c(F)c3nc(OC[C@@]45CCCN4C[C@H](F)C5)nc1c23` (single isomer, unassigned) [Compound 265, 3-((R or S)-1-(5-(5-amino-4-fluoro-3-methyl-2-(trifluoromethyl)phenyl)-4-fluoro-2-(((2R,7aS)-2-fluorotetrahydro-1H-pyrrolizin-7a(5H)-yl)methoxy)-8,9-dihydro-10H-7-oxa-1,3,6,10-tetraazacyclohepta[de]naphthalen-10-yl)ethyl)-N-methylpyridin-2-amine], the IC50 in assay [1], in assay [2] and in assay [3] was more than 100 nM each time.

For `Cc1cc(N)cc(-c2nc3c4c(nc(OC[C@@]56CCCN5C[C@H](F)C6)nc4c2F)N(C(C)c2cccnc2N)[C@@H](C)CO3)c1C(F)(F)F` (single isomer, unassigned) [Compound 267], the figures for the IC50 in assay [1], in assay [2] and in assay [3] were 0.2 nM, 0.3 nM and 0.6 nM, respectively.
